# Measurements reported in paper PMC10053770, “Assessment of the Pharmacokinetics, Disposition, and Duration of Action of the Tumour-Targeting Peptide CEND-1” (International Journal of Molecular Sciences, 2023).
# Bridges are numbered along the chain shown (N, C = ends). Where no end group is shown, it is not given here.
# System: HCCs of TGFα/c-myc mice
# Assay: Tumour penetration assessment with Evans blue
# Type: in vivo, mouse
# Settings: 4 μmol/kg peptide i.v.; Evans blue 33 mg/kg i.v. 24 h later; photometric quantification; n = 11 tumours from four animals
# Method: Homozygous metallothionein/TGFα and albumin/c-myc single transgenic mice in CD13B6CBA background were crossed to generate the male TGFα/c-myc bitransgenic mice, as previously described. Hepatocarcinogenesis was accelerated by giving the mice ZnCl2 (via the drinking water) to induce the expression of TGFα. The animals were inspected every 2 to 3 days. To detect and monitor the endogenously formed HCCs in the TGFα/c-myc mice, gadoxetic acid (Gd-EOB-DTPA)-enhanced MRI was performed on a 3T MRI scanner (Siemens Magnetom Trio, Siemens Medical Solutions) as described recently. Mice with HCC as identified by Gd-EOB-DTPA-enhanced MRI were used in the subsequent experiments.
# TGFα/c-myc mice with confirmed liver tumours according to Gd-EOB-DTPA […]-enhanced MRI or nude mice with HepG2 tumours received iRGD/CEND-1 or RGD control peptide (4 μmol/kg each), or PBS by tail vein injection. […] Another 30 min later, the mice were terminally perfused with Ringer solution by cannulation of the left heart ventricle. Organs were inspected macroscopically following laparotomy, and the liver, tumour and other organs were excised. Evans blue was extracted from tissues in N,N-dimethylformamide for 24 h at 37 °C and quantified spectrophotometrically (Beckman Coulter DU 800, Beckman Coulter, Brea, CA, USA) at 600 nm.
sequence,measurement,value
"CRGDDGPKC (disulfide 1-9 (inferred)) [RGD control peptide, RGD control peptide (…)]",increase in Evans blue in the tumour tissue,no effect
